Legend:
[1] = Steady state fluorescence Zn titration (Stern-Volmer fit); format: binding; settings: for Stern-Volmer binding constant (KSV): Table 1, with Zn, factor 10^4; for Stern-Volmer constant KSV with Zn^2+: compound 20 μM, Zn^2+ 2.5 to 40 μM, emission 530 nm
Protocol: The metal chelation ability of the compounds were assessed by UV-Visible absorbance and fluorescence spectroscopy by metal titration experiments. The small molecules were dissolved in HEPES buffer to make concentration of 20 μM and the metal ion (Zn^2+) was titrated with increasing concentration from 2.5 μM to 40 μM with 2 min of incubation between each addition. The change in absorbance and fluorescence spectra of compound was recorded and analysed for metal-small molecules interaction. The data was plotted in Origin (Pro), Version 2022 and analysed for determination of dissociation constant. The absorbance values were fitted using Benesi-Hildebrand equation to elucidate the binding constant of metals with small molecules.
where, KB is the binding or association constant, and A0 and Aα represent the peak absorbance of small molecules in the absence and presence of the highest concentration of metal ion (40 μM). The reciprocal of KB was taken as the dissociation constant, Kd. The change in fluorescence was fitted using Stern-Volmer equation to determine KSV: […]
where, F0 and F are the fluorescence intensities of small molecules in the absence and presence of metal ion, respectively. KSV is the Stern-Volmer quenching constant and [Q] is the concentration of quencher/enhancer (metal ion in this case).
Fluorescence spectroscopy is a reliable method to probe host-probe interactions, wherein the change in wavelength or intensity of emission spectrum is indicative of the strength of complexation. […] The classical Stern-Volmer equation was used to quantify the quenching and measure the Stern-Volmer constant, KSV wherein a higher value of KSV implies ability of the compound to form strong complexation with the host (Zn^2+). […] Due to the good binding affinity of the small molecules towards Zn, the designed small molecules were anticipated to chelate and interfere tau-Zn interaction.

[2] = Isothermal titration calorimetry of small molecule-Zn interaction; format: binding; settings: for ΔG of binding to Zn, ITC / ΔH (enthalpy) of binding to Zn, ITC / −TΔS (entropy) of binding to Zn, ITC: 298 K; for ΔG / ΔH / −TΔS: Table 1, with Zn
Protocol: ITC measurements were performed using a Malvern MicroCal-PEAQ ITC machine. Solutions of small molecules (compounds 1a, 1b and 1c) of the present disclosure and ZnCl2 were prepared in 100% DMSO. A revolving syringe was used to inject 26 consecutive 1.5 μL aliquots of Zn^2+ into the small molecules solution to ensure a continual mixing. The ITC cell reference power and temperature were set at […] and 25° C., respectively. To guarantee complete equilibration before the next injection, an interval of 150 s was maintained between subsequent measurements. Obtained isotherms were corrected by the subtraction of heat of dilution (buffer and small molecules). By using a single site binding model in the MicroCal PEAQ-ITC analysis software, nonlinear least squares fitting of the binding isotherms was carried out to estimate the thermodynamic parameters and dissociation constant (Kd).
The thermodynamic parameters of the interactions between small molecules and Zn^2+ were determined by ITC study. ZnCl2 solution in the injection syringe was titrated into compound solution in the sample cell. The heat change was measured and plotted as a function of the molar ratio of small molecules and Zn^2+. […] Right panel depicts the integrated binding isotherms as a function of the binary complex at 298 K. Fitting was obtained from the data points with one set of the binding site model). […] The Kd values determined from ITC validate the results obtained from other binding studies discussed vide supra (lower Kd and higher KSV). Both endothermic and exothermic peaks were observed upon binding of 1c and Zn resulting in a net negative ΔH value, and the data was fitted to exothermic one site binding model. For a reaction to be spontaneous, it must be favored by at least one of the factors, enthalpy or entropy.

tau protein = target: T1, tau protein (Homo sapiens, UniProt P10636); assay: Tau intrinsic fluorescence quenching assay; format: binding; settings: tau 5 μM, compound 250 nM to 25 μM; for Kd: PBS pH 7.4, read-out: One site binding saturation fit Kd with tau
T1 construct: the full-length tau plasmid construct was transformed into E. coli, BL21 strain; inferred from the Ni-NTA purification; made in house; host or cells: E. coli BL21
T1 sequence (P10636 1-441 isoform P10636-8): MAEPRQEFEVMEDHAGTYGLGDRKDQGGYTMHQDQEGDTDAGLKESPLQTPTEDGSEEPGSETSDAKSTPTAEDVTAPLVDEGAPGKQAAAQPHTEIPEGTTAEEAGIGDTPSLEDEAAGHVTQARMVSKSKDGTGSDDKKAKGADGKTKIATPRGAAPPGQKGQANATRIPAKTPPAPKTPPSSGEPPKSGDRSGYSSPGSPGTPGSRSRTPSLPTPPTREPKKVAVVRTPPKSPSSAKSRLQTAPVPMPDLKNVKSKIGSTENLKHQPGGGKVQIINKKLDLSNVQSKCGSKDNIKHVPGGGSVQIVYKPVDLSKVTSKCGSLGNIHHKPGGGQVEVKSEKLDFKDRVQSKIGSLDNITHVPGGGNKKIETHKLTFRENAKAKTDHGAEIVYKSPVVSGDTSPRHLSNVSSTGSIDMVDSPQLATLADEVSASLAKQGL
Protocol: Tau protein was expressed and purified from E. coli as per known procedures. Briefly, the full-length tau plasmid construct was transformed into E. coli, BL21 strain and cultured in LB broth containing ampicillin ([…]) and chloramphenicol (50 μM) at 37° C. with continuous shaking at 180 rpm overnight. Then 1% of primary culture was transferred to 1 L of LB broth with antibiotics and incubated until it reaches OD of 0.6. The culture was induced with 1 mM IPTG and further cultured for 4 h. Cells were pelleted by centrifugation (7000 rpm) at 4° C. and resuspended in 50 mM phosphate buffer (0.3 M NaCl, 5 mM imidazole and 1 mM of PMSF, pH 8) and boiled to precipitate unwanted proteins for 10-15 min with intermittent agitation. The supernatant containing tau protein was collected and further purified by Ni-NTA affinity column chromatography. The purified tau protein was quantified by Bradford assay, characterised by SDS-PAGE and stored at −80° C. until further use.
Tau was dissolved in PBS buffer pH 7.4 to make 5 μM and titrated with small molecules from 250 nM to 25 μM concentration and fluorescence spectra was recorded by exiting at 274 nm. The emission spectra were plotted and analysed using Origin (Pro), Version 2022 and GraphPad Prism 9.4.0, fitted with one site binding saturation equation to find Kd. Further fluorescence quenching was fitted with Stern-Volmer equation to determine KSV.
The binding of small molecules with tau protein was monitored using tau intrinsic fluorescence spectral changes. […] The change in fluorescence intensity was fitted with one site binding saturation model to determine the Kd values. […] The KSV values were obtained from the Stern-Volmer equation to further quantify the extent of binding. […] This further emphasized the significance of the skeletal template of the modulators for tau interaction, rather than individual substituted aromatic amino acids.

Zn induced tau LLPS = target: T2, Zn induced tau LLPS (Homo sapiens, UniProt P10636); assay: DIC microscopy, inhibition of Zn induced tau LLPS; format: biochemical; settings: tau 10 μM, Zn 40 μM, compound 20 μM added before Zn; Zn alone ~1.3
T2 construct: the full-length tau plasmid construct was transformed into E. coli, BL21 strain; inferred from the Ni-NTA purification; made in house; host or cells: E. coli BL21
T2 sequence (P10636 1-441 isoform P10636-8): as above
Protocol: (§1) Liquid-liquid phase separation (LLPS) of tau was induced by molecular crowding in LLPS buffer (10 mM HEPES, 100 mM NaCl, 10% PEG 4000 and pH 7.4) and Zn.^32 Tau (10 μM) was suspended in LLPS buffer and added Zn (40 μM) incubate for 10 min to induce LLPS. For inhibition studies the tau in LLPS buffer was treated with small molecules (20 μM) before addition of Zn and for control same volume of vehicle (DMSO) was added. Dissolution samples were prepared by induction of LLPS for 10 min using Zn and followed by addition of small molecules and further incubation of 15 min. The samples were drop-cast (10 μL) on clean glass slides, mount with coverslip and immediately imaged in Olympus FLUOVIEW 3000 microscope in differential interface contrast (DIC) mode with 63× oil immersion objective. The images were acquired in multiple areas and planes to confirm the LLPS formation and its modulation by small molecules. Image analysis was performed by using ImageJ software, plotted normalised droplet size against control and analysed by GraphPad Prism.
(§2) The strong binding interaction of small molecules with Zn and tau encouraged us to evaluate them for modulation of Zn indued LLPS of tau. The ability of small molecules to inhibit tau LLPS and formation of droplets were studied by differential interface contrast (DIC) microscopy (FIG. 4). In the presence of Zn, tau readily undergoes LLPS and formed liquid like droplets within 10 min, as evident from the observed fusion droplets (FIG. 4A and inset). […] The inhibitory effect is in the order of 1c followed by 1b and 1a, which agrees with Zn and tau binding ability of small molecules. The LLPS of tau is through transient weak interactions and we believe that the small molecules with strong multivalent interactions with tau and Zn (chelation) potentially dissolve the phase separated droplets. […] The absorption spectra of 1c in the presence of tau and Zn (independently) and together was recorded. […]

[3] = target: T3, Zn induced tau LLPS condensates (Homo sapiens, UniProt P10636); assay: DIC microscopy, dissolution of phase separated tau condensates; format: biochemical; settings: LLPS induced 10 min with Zn, then compound 15 min; Zn alone 2.26
T3 construct: the full-length tau plasmid construct was transformed into E. coli, BL21 strain; inferred from the Ni-NTA purification; made in house; host or cells: E. coli BL21
T3 sequence (P10636 1-441 isoform P10636-8): as above
Protocol: as §1, §2

tau and Zn = target: T4, tau and Zn (Homo sapiens, UniProt P10636); assay: UV-Visible spectroscopy, preferential binding among tau and Zn; settings: absorption spectra with tau, Zn and both
T4 construct: the full-length tau plasmid construct was transformed into E. coli, BL21 strain; inferred from the Ni-NTA purification; made in house; host or cells: E. coli BL21
T4 sequence (P10636 1-441 isoform P10636-8): as above
Protocol: as §2, with “droplets. To evaluate the reversal effect of small molecules on phase separated droplets, tau LLPS was induced (10 min) and treated with small molecules for 15 min followed by visualization by DIC imaging. […] The droplet size was reduced to less than control in case of 1c treated samples (˜0.66-fold) indicating its ability to inhibit Zn induced tau LLPS. The modulatory effect of 1c prompted to look for its preferential interaction among tau and Zn.” for “droplets.”

O=C1N[C@@H](Cc2ccccc2)C(=O)N[C@H]1CCCCN1C(=O)c2cccc3c(N(Cc4ccccn4)Cc4ccccn4)ccc(c23)C1=O [Compound 1a, 2-(4-((2S,5S)-5-benzyl-3,6-dioxopiperazin-2-yl)butyl)-6-(bis(pyridin-2-ylmethyl)amino)-1H-benzo[de]isoquinoline-1,3(2H)-dione]
Stern-Volmer binding constant (KSV) [1]: 0.06 × × 10^4
Stern-Volmer constant KSV with Zn^2+ [1]: 0.06×10^4
ΔG of binding to Zn, ITC [2]: -3.48 kcal/mol
ΔH (enthalpy) of binding to Zn, ITC ([2]; unit not given): −13.1±0.13
−TΔS (entropy) of binding to Zn, ITC ([2]; unit not given): 9.59
ΔG ([2]; unit not given): −3.48
ΔH ([2]; unit not given): −13.1
−TΔS ([2]; unit not given): 9.59
Stern-Volmer KSV with tau (tau protein): 190000 M⁻¹
Kd (tau protein): 2.88 ± 0.51 µM
droplet size (normalized to control), inhibition of LLPS (Zn induced tau LLPS): ~1.19 fold
droplet size (normalized to control), dissolution of condensates [3]: ~1.1 fold

O=C1N[C@@H](Cc2ccc(O)cc2)C(=O)N[C@H]1CCCCN1C(=O)c2cccc3c(N(Cc4ccccn4)Cc4ccccn4)ccc(c23)C1=O [Compound 1b, 6-(bis(pyridin-2-ylmethyl)amino)-2-(4-((2S,5S)-5-(4-hydroxybenzyl)-3,6-dioxopiperazin-2-yl)butyl)-1H-benzo[de]isoquinoline-1,3(2H)-dione]
Stern-Volmer binding constant (KSV) [1]: 1.7 × × 10^4
Stern-Volmer constant KSV with Zn^2+ [1]: 1.7×10^4
ΔG of binding to Zn, ITC [2]: -5.78 kcal/mol
ΔH (enthalpy) of binding to Zn, ITC [2]: -0.551 ± 0.056 kcal/mol
−TΔS (entropy) of binding to Zn, ITC [2]: -5.23 kcal/mol
ΔG ([2]; unit not given): −5.78
ΔH ([2]; unit not given): −0.551
−TΔS ([2]; unit not given): −5.23
Stern-Volmer KSV with tau (tau protein): 160000 M⁻¹
Kd (tau protein): 1.74 ± 0.17 µM
droplet size (normalized to control), inhibition of LLPS (Zn induced tau LLPS): ~1.12 fold
droplet size (normalized to control), dissolution of condensates [3]: ~1.6 fold

O=C1N[C@@H](Cc2c[nH]c3ccccc23)C(=O)N[C@H]1CCCCN1C(=O)c2cccc3c(N(Cc4ccccn4)Cc4ccccn4)ccc(c23)C1=O [Compound 1c, 2-(4-((2S,5S)-5-((1H-indol-3-yl)methyl)-3,6-dioxopiperazin-2-yl)butyl)-6-(bis(pyridin-2-ylmethyl)amino)-1H-benzo[de]isoquinoline-1,3(2H)-dione]
Stern-Volmer binding constant (KSV) [1]: 1.7 × × 10^4
Stern-Volmer constant KSV with Zn^2+ [1]: 1.7×10^4
ΔG of binding to Zn, ITC [2]: -6.45 kcal/mol
ΔH (enthalpy) of binding to Zn, ITC [2]: -0.698 ± 0.223 kcal/mol
−TΔS (entropy) of binding to Zn, ITC [2]: -5.75 kcal/mol
ΔG ([2]; unit not given): −6.45
ΔH ([2]; unit not given): −0.693
−TΔS ([2]; unit not given): −5.75
Stern-Volmer KSV with tau (tau protein): 150000 M⁻¹
Kd (tau protein): 3.95 ± 0.32 µM
droplet size (normalized to control), inhibition of LLPS (Zn induced tau LLPS): ~1 fold
droplet size (normalized to control), dissolution of condensates [3]: ~0.66 fold
preferential interaction among tau and Zn (tau and Zn): preferential interaction of 1c with tau over Zn
